Experiments:
TCF12 = assay: beta gal target cleavage assay, TCF12; assay type: cell-based, human; settings: A375 cells, mimic co-transfected at 100 nM; Kruskal Wallis p-value<0.001
Procedure: Target cleavage assays using the miRNA targets from the bioinformatics analyses above were conducted. The 3' UTR seed sequences of putative target genes were amplified by PCR (Phusion PCR kit, Finnzymes) from human Melanocyte genomic DNA (Primers: ARL2 For-[NT] (SEQ ID NO 92), ARL2 Rev-[NT] (SEQ ID NO 93); FGF2 For-[NT] (SEQ ID NO 94), FGF2 Rev-[NT] (SEQ ID NO 95); RAB22A For-[NT] (SEQ ID NO 96), RAB22A Rev-[NT] (SEQ ID NO 97); SLC37A3 For-[NT] (SEQ ID NO 98), SLC37A3 Rev-[NT] (SEQ ID NO 99); TCF12 For-[NT] (SEQ ID NO 100), TCF12 Rev-[NT] ((SEQ ID NO 101); all primer sets containing [NT] AgeI sites). PCR products were cloned into pCR4-TOPO (Invitrogen), confirmed by sequencing, then subcloned into the 3' UTR of the LacZ gene in pcDNA6/[…]/LacZ (Invitrogen) using the [NT] AgeI restriction sites, and reconfirmed by sequencing (pcDNA6/LacZ/ARL2, pcDNA6/LacZ/FGF2, pcDNA6/LacZ/RAB22A, pcDNA6/LacZ/SLC37A3, and pcDNA6/LacZ/TCF12, respectively). FIG. 11 is an example of the pcDNA6/LacZ construct used within these experiments. As shown, the FGF2 target sequence may be cloned into the 3' UTR of the LacZ gene. A375 Melanoma cell lines were transfected in triplicate (Fugene 6, Roche) with 5 μg plasmid DNA of: […] Negative control sequence is based on cel-miR-67, mature sequence: […] been confirmed to have minimal sequence identity with miRNAs in human, mouse and rat or E) no mimic. […]

RAB22A = assay: beta gal target cleavage assay, RAB22A; assay type: cell-based, human; settings: A375 cells, mimic co-transfected at 100 nM
Procedure: (§1) Target cleavage assays using the miRNA targets from the bioinformatics analyses above were conducted. The 3′ UTR seed sequences of putative target genes were amplified by PCR (Phusion PCR kit, Finnzymes) from human Melanocyte genomic DNA (Primers: ARL2 For-ctcctccaccccagcctgc (SEQ ID NO 92), ARL2 Rev-[…] (SEQ ID NO 93); FGF2 For-[…] (SEQ ID NO 94), FGF2 Rev-[…] (SEQ ID NO 95); RAB22A For-[…] (SEQ ID NO 96), RAB22A Rev-[…] (SEQ ID NO 97); SLC37A3 For-[…] (SEQ ID NO 98), SLC37A3 Rev-[…] (SEQ ID NO 99); TCF12 For-[…] (SEQ ID NO 100), TCF12 Rev-[…] ((SEQ ID NO 101); all primer sets containing 5′ NotI and 3′ AgeI sites). PCR products were cloned into pCR4-TOPO (Invitrogen), confirmed by sequencing, then subcloned into the 3′ UTR of the LacZ gene in pcDNA6/V5-His/LacZ (Invitrogen) using the 5′ NotI and 3′ AgeI restriction sites, and reconfirmed by sequencing (pcDNA6/LacZ/ARL2, pcDNA6/LacZ/FGF2, pcDNA6/LacZ/RAB22A, pcDNA6/LacZ/SLC37A3, and pcDNA6/LacZ/TCF12, respectively). FIG. 11 is an example of the pcDNA6/LacZ construct used within these experiments. As shown, the FGF2 target sequence may be cloned into the 3′ UTR of the LacZ gene. […]

KCNMA1 = assay: beta gal target cleavage assay, KCNMA1; assay type: cell-based, human
SLC37A3 = assay: beta gal target cleavage assay, SLC37A3; assay type: cell-based, human; settings: A375 cells, mimic co-transfected at 100 nM
Procedure: as §1

FGF2 = assay: beta gal target cleavage assay, FGF2; assay type: cell-based, human; settings: pcDNA6/LacZ/FGF2; data not shown
Procedure: as §1

ncRNAs (SEQ ID NO 28-89) = assay: ncRNA arrays of melanocytes, keratinocytes, normal skin, melanoma cell lines and patient samples; design: species or system human; settings: for ncRNA array expression, patient 2: melanoma patient 2 sample compared to normal skin; for ncRNA array expression, patient 3: melanoma patient 3 sample compared to normal skin; for ncRNA array expression, patient 4: melanoma patient 4 sample compared to normal skin; for ncRNA array expression, patient 5: melanoma patient 5 sample compared to normal skin; for ncRNA array expression, patient 6: melanoma patient 6 sample compared to normal skin; for ncRNA array expression, patient 7: melanoma patient 7 sample compared to normal skin; for ncRNA array expression, patient 8: melanoma patient 8 sample compared to normal skin; for ncRNA array expression, patient 9: melanoma patient 9 sample compared to normal skin; for ncRNA array expression, patient 10: melanoma patient 10 sample compared to normal skin; for ncRNA array expression, patient 19: melanoma patient 19 sample compared to normal skin; for ncRNA array expression, patient 20: melanoma patient 20 sample compared to normal skin; for ncRNA array expression, patient 21: melanoma patient 21 sample compared to normal skin; for ncRNA array expression, patient 22: melanoma patient 22 sample compared to normal skin; for ncRNA array expression, patient 23: melanoma patient 23 sample compared to normal skin; for ncRNA array expression, patient 24: melanoma patient 24 sample compared to normal skin; for ncRNA array expression, patient 25: melanoma patient 25 sample compared to normal skin; for ncRNA array expression, patient 26: melanoma patient 26 sample compared to normal skin; for ncRNA array expression, patient 27: melanoma patient 27 sample compared to normal skin; for ncRNA array expression, patient 28: melanoma patient 28 sample compared to normal skin; for ncRNA array expression, patient 29: melanoma patient 29 sample compared to normal skin; for ncRNA array expression, patient 30: melanoma patient 30 sample compared to normal skin
Outline: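 Differential ncRNA expression was defined against melanocytes or normal skin after subtracting keratinocyte-specific signals, with confirmation by qRT-PCR and Northern blot. Samples were melanoma cell lines, patient tumours, melanocytes, keratinocytes and normal skin, hybridised to a >10,000-probe (>200 nt) ncRNA array that also carries RefSeq mRNA probes.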

Row | Substance | ncRNA array expression, patient 2 (ncRNAs (SEQ ID NO 28-89)) | ncRNA array expression, patient 3 (ncRNAs (SEQ ID NO 28-89)) | ncRNA array expression, patient 4 (ncRNAs (SEQ ID NO 28-89)) | ncRNA array expression, patient 5 (ncRNAs (SEQ ID NO 28-89)) | ncRNA array expression, patient 6 (ncRNAs (SEQ ID NO 28-89)) | ncRNA array expression, patient 7 (ncRNAs (SEQ ID NO 28-89)) | ncRNA array expression, patient 8 (ncRNAs (SEQ ID NO 28-89)) | ncRNA array expression, patient 9 (ncRNAs (SEQ ID NO 28-89)) | ncRNA array expression, patient 10 (ncRNAs (SEQ ID NO 28-89)) | ncRNA array expression, patient 19 (ncRNAs (SEQ ID NO 28-89)) | ncRNA array expression, patient 20 (ncRNAs (SEQ ID NO 28-89)) | ncRNA array expression, patient 21 (ncRNAs (SEQ ID NO 28-89)) | ncRNA array expression, patient 22 (ncRNAs (SEQ ID NO 28-89)) | ncRNA array expression, patient 23 (ncRNAs (SEQ ID NO 28-89)) | ncRNA array expression, patient 24 (ncRNAs (SEQ ID NO 28-89)) | ncRNA array expression, patient 25 (ncRNAs (SEQ ID NO 28-89)) | ncRNA array expression, patient 26 (ncRNAs (SEQ ID NO 28-89)) | ncRNA array expression, patient 27 (ncRNAs (SEQ ID NO 28-89)) | ncRNA array expression, patient 28 (ncRNAs (SEQ ID NO 28-89)) | ncRNA array expression, patient 29 (ncRNAs (SEQ ID NO 28-89)) | further results
1 | miR-211: miRIDIAN microRNA Mimic (Dharmacon) for miR-211, UUCCCUUUGUCAUCCUUCGCCU (commercial miRIDIAN mimic, chemistry not given here; listed as Homo sapiens) | – | – | – | – | – | – | – | – | – | – | – | – | – | – | – | – | – | – | – | – | beta-galactosidase activity, TCF-12 target construct (TCF12): statistically significant reduction in fold change; beta-galactosidase activity, RAB22A target construct (RAB22A): decreased; target binding in KCNMA1 (beta gal target cleavage assay) (KCNMA1): confirmed; beta-galactosidase activity, SLC37A3 target construct (SLC37A3): decreased
2 | miR-16: miRIDIAN microRNA Mimic (Dharmacon) for miR-16, UAGCAGCACGUAAAUAUUGGCG (commercial miRIDIAN mimic, chemistry not given here; listed as Homo sapiens) | – | – | – | – | – | – | – | – | – | – | – | – | – | – | – | – | – | – | – | – | targeting of FGF2 (target cleavage assay) (FGF2): confirmed
3 | SEQ ID NO 85 (TGAGGGGAGAGGGGATGGGAAACATTAGGGCTGGGTTCATGTAAAGGGACCAGCATTGTG; listed as DNA, chemistry not given here; listed as Homo sapiens) | −3.042 | −2.236 | −3.353 | −3.144 | −1.878 | −3.331 | −3.241 | −3.15 | −2.88 | −2.497 | −3.4136 | −3.4 | −1.235 | −0.784 | −3.14 | −3.2 | −3.139 | −3.328 | −3.261 | −3.3212 | ncRNA array expression, patient 30 (ncRNAs (SEQ ID NO 28-89)): 0.6346
4 | SEQ ID NO 59 (TGTGCAGCAGTATCAAAGGTCCTTAAATTCTCAACAATGAAGGAAAAACAAAAACCCATT; listed as DNA, chemistry not given here; listed as Homo sapiens) | −0.9339 | −1.02 | −1.168 | −1.255 | −1.212 | −0.9325 | −0.9937 | −1.258 | −0.9688 | −1.202 | −1.14 | −1.263 | −0.5383 | −1.165 | −1.154 | −0.9916 | −0.8776 | −1.161 | −1.232 | −1.077 | ncRNA array expression, patient 30 (ncRNAs (SEQ ID NO 28-89)): −1.04
5 | SEQ ID NO 31 (TTGCTTTTGTATTTGTAATTTTATGACATTTCGAAGTTTCTGTGTCTTAACTCTTTTTAA; listed as DNA, chemistry not given here; listed as Homo sapiens) | 2.958 | 2.154 | 2.238 | 2.368 | 1.429 | 4.22 | −0.4178 | 2.588 | 3.165 | 2.105 | 2.853 | 4.304 | 2.578 | 2.86 | 1.373 | 2.408 | 3.487 | 2.156 | 2.25 | 2.949 | ncRNA array expression, patient 30 (ncRNAs (SEQ ID NO 28-89)): −2.886
